Assays:
TNFα = TNFα expression in RAW 264 macrophages; format: cell-based; settings: RAW 264 macrophages cultured alone; compound added to calcitriol
Procedure: (§1) RAW 264 macrophages and 3T3-L1 preadipocytes (American Type Culture Collection) were incubated at a density of 8000 cells/cm2 (10 cm2 dish) and grown in Dulbecco's modified Eagle's medium (DMEM) containing 10% FBS and antibiotics (adipocyte medium) at 37° C. in 5% CO2 in air. Confluent 3T3-L1 preadipocytes were induced to differentiate with a standard differentiation medium consisting of DMEM-F10 (1:1, vol/vol) medium supplemented with 1% FBS, 1 μM dexamethasone, IBMX (0.5 mM) and antibiotics (1% Penicillin-Streptomycin). Preadipocytes were maintained in this differentiation medium for 3 days and subsequently cultured in adipocyte medium. Cultures were re-fed every 2-3 days to allow 90% cells to reach fully differentiation for 3T3-L1 adipocytes or grow to a confluence for RAW 264 before conducting chemical treatment.
(§2) Cells were washed with fresh adipocyte medium, re-fed with medium containing the indicated treatments, and incubated at 37° C. in 5% CO2 for 48 hours before analysis. Cell viability was measured via trypan blue exclusion.
Human adipocytes (Zen-Bio, Inc.), 3T3-L1 adipocytes, RAW264 macrophages were obtained and co-cultured by using transwell inserts with 0.4 μm porous membranes (Corning) to separate adipocytes and macrophages. All data are expressed as mean±SEM. Data were evaluated for statistical significance by analysis of one-way or two-way variance (ANOVA; means with different letter differ, p<0.05).
Adipocyte and muscle 18s, CD14, TNFα, MIP, M-CSF, IL-6 and MCP-1 were quantitatively measured using a Smart Cycler Real Time PCR System (Cepheid, Sunnyvale, Calif.) with a TaqMan 1000 Core Reagent Kit (Applied Biosystems, Branchburg, N.J.). […] Reactions of quantitative RT-PCR for standards and unknown samples were also performed according to the instructions of Smart Cycler System (Cepheid, Sunnyvale, Calif.) and TaqMan Real Time PCR Core Kit (Applied Biosystems, Branchburg, N.J.). The mRNA quantitation for each sample was further normalized using the corresponding 18s quantitation.

IL-6 = IL-6 expression in RAW 264 macrophages; format: cell-based; settings: RAW 264 macrophages cultured alone; compound added to calcitriol
Procedure: as §1, with “Cultures were re-fed every 2-3 days to allow 90% cells to reach fully differentiation for 3T3-L1 adipocytes or grow to a confluence for RAW 264 before conducting chemical treatment.” left out
as §2
Human adipocytes (Zen-Bio, Inc.), 3T3-L1 adipocytes, RAW264 macrophages were obtained and co-cultured by using transwell inserts with 0.4 μm porous membranes (Corning) to separate adipocytes and macrophages. All data are expressed as mean±SEM. Data were evaluated for statistical significance by analysis of one-way or two-way variance (ANOVA; means with different letter differ, p<0.05). […]

3T3-L1 adipocytes [1] = experiment: Mitochondrial membrane potential (JC-1); format: cell-based, mouse; settings: GDP 100 μmol/L plus H2O2
Procedure: (§3) 3T3-L1 preadipocytes were incubated at a density of 8000 cells/cm^2 (10 cm^2 dish) and grown in Dulbecco's modified Eagle's medium (DMEM) containing 10% FBS and antibiotics (adipocyte medium) at 37° C. in 5% CO2 in air. Confluent preadipocytes were induced to differentiate with a standard differentiation medium consisting of DMEM-F10 (1:1, vol/vol) medium supplemented with 1% FBS, 1 μM dexamethasone, IBMX (0.5 mM) and antibiotics (1% Penicillin-Streptomycin). Preadipocytes were maintained in this differentiation medium for 3 days and subsequently cultured in adipocyte medium. Cultures were re-fed every 2-3 days to allow 90% of cells to reach full differentiation before conducting chemical treatment. Chemicals were freshly diluted in adipocyte medium before treatment. […] Cell viability was measured via trypan blue exclusion.
Mitochondrial membrane potential was analyzed fluorometrically with a lipophilic cationic dye JC-1 (5,5′,6,6′-tetrachloro-1,1′,3,3′-tetraethylbenzimidazol carbocyanine iodide) using a mitochondrial potential detection kit (Biocarta, San Diego, Calif.). Mitochondrial potential was determined as the ratio of red fluorescence (excitation 550 nm, emission 600 nm) and green fluorescence (excitation 485 nm, emission 535 nm) using a fluorescence microplate reader.

3T3-L1 adipocytes [2] = experiment: Cell proliferation / DNA synthesis in cultured adipocytes (CyQUANT); format: cell-based, mouse; settings: compound plus glucose 30 mmol/L, 48 hours
Procedure: 3T3-L1 preadipocytes were incubated at a density of 8000 cells/cm^2 (10 cm^2 dish) and grown in Dulbecco's modified Eagle's medium (DMEM) containing 10% FBS and antibiotics (adipocyte medium) at 37° C. in 5% CO2 in air. Confluent preadipocytes were induced to differentiate with a standard differentiation medium consisting of DMEM-F10 (1:1, vol/vol) medium supplemented with 1% FBS, 1 μM dexamethasone, IBMX (0.5 mM) and antibiotics (1% Penicillin-Streptomycin). Preadipocytes were maintained in this differentiation medium for 3 days and subsequently cultured in adipocyte medium. Cultures were re-fed every 2-3 days to allow 90% of cells to reach full differentiation before conducting chemical treatment. Chemicals were freshly diluted in adipocyte medium before treatment. Cells were washed with fresh adipocyte medium, re-fed with medium containing the different treatments, and incubated at 37° C. in 5% CO2 in air before analysis. Cell viability was measured via trypan blue exclusion. Cells were plated in DMEM with different treatment in duplicate in 96-well plates. After 48 h, a CyQUANT Cell Proliferation Kit (Molecular Probes, Eugene, Oreg.) was used following the manufacturer's protocol. a microplate fluorometer (Packard Instrument Company, Inc., Downers Grove, Ill.) was used to measure CyQUANT fluorescence. Cell viability was determined by Trypan blue exclusion examination.

cyclin A = experiment: Cyclin A expression in cultured adipocytes; format: cell-based, mouse; settings: compound plus glucose 30 mmol/L, 48 hours
Procedure: as §3, with “exclusion. Adipocyte 18s, cyclin A, NADPH oxidase, and UCP2 were quantitatively measured using a Smart Cycler Real Time PCR System (Cepheid, Sunnyvale, Calif.) with a TaqMan 1000 Core Reagent Kit (Applied Biosystems, Branchburg, N.J.). […] Reactions of quantitative RT-PCR for standards and unknown samples were also performed according to the instructions of Smart Cycler System (Cepheid, Sunnyvale, Calif.) and TaqMan Real Time PCR Core Kit (Applied Biosystems, Branchburg, N.J.). The mRNA quantitation for each sample was further normalized using the corresponding 18s quantitation.” for “exclusion.”

3T3-L1 adipocytes [3] = experiment: Intracellular ROS generation in cultured adipocytes (H2-DCFDA); format: cell-based, mouse
Procedure: 3T3-L1 preadipocytes were incubated at a density of 8000 cells/cm^2 (10 cm^2 dish) and grown in Dulbecco's modified Eagle's medium (DMEM) containing 10% FBS and antibiotics (adipocyte medium) at 37° C. in 5% CO2 in air. Confluent preadipocytes were induced to differentiate with a standard differentiation medium consisting of DMEM-F10 (1:1, vol/vol) medium supplemented with 1% FBS, 1 μM dexamethasone, IBMX (0.5 mM) and antibiotics (1% Penicillin-Streptomycin). Preadipocytes were maintained in this differentiation medium for 3 days and subsequently cultured in adipocyte medium. Cultures were re-fed every 2-3 days to allow 90% of cells to reach full differentiation before conducting chemical treatment. Chemicals were freshly diluted in adipocyte medium before treatment. Cells were washed with fresh adipocyte medium, re-fed with medium containing the different treatments, and incubated at 37° C. in 5% CO2 in air before analysis. Cell viability was measured via trypan blue exclusion. […] Cells were loaded with H2-DCFDA (2 μmol/L) 30 minute before the end of the incubation period (48 h). After washing twice with PBS, cells were scraped and disrupted by sonication on ice (20 s). Fluorescence (emission 543 nm or 527 nm) and DNA content were then measured as described previously. The intensity of fluorescence was expressed as arbitrary units per ng DNA.

NADPH oxidase = NADPH oxidase expression in cultured adipocytes; format: cell-based, mouse; settings: glucose 30 mmol/L alone or plus compound, 48 hours
Procedure: 3T3-L1 preadipocytes were incubated at a density of 8000 cells/cm^2 (10 cm^2 dish) and grown in Dulbecco's modified Eagle's medium (DMEM) containing 10% FBS and antibiotics (adipocyte medium) at 37° C. in 5% CO2 in air. Confluent preadipocytes were induced to differentiate with a standard differentiation medium consisting of DMEM-F10 (1:1, vol/vol) medium supplemented with 1% FBS, 1 μM dexamethasone, IBMX (0.5 mM) and antibiotics (1% Penicillin-Streptomycin). Preadipocytes were maintained in this differentiation medium for 3 days and subsequently cultured in adipocyte medium. Cultures were re-fed every 2-3 days to allow 90% of cells to reach full differentiation before conducting chemical treatment. Chemicals were freshly diluted in adipocyte medium before treatment. Cells were washed with fresh adipocyte medium, re-fed with medium containing the different treatments, and incubated at 37° C. in 5% CO2 in air before analysis. Cell viability was measured via trypan blue exclusion. Adipocyte 18s, cyclin A, NADPH oxidase, and UCP2 were quantitatively measured using a Smart Cycler Real Time PCR System (Cepheid, Sunnyvale, Calif.) with a TaqMan 1000 Core Reagent Kit (Applied Biosystems, Branchburg, N.J.). The primers and probe sets were ordered from Applied Biosystems TaqMan® Assays-on-Demand™ Gene Expression primers and probe set collection according to manufacture's instruction. Pooled adipocyte total RNA was serial-diluted in the range of 1.5625-25 ng and used to establish a standard curve; total RNAs for unknown samples were also diluted in this range. Reactions of quantitative RT-PCR for standards and unknown samples were also performed according to the instructions of Smart Cycler System (Cepheid, Sunnyvale, Calif.) and TaqMan Real Time PCR Core Kit (Applied Biosystems, Branchburg, N.J.). The mRNA quantitation for each sample was further normalized using the corresponding 18s quantitation.

C2C12 myotubes [4] = experiment: Fatty acid oxidation (palmitate oxidation) in muscle cells; format: cell-based, murine
Procedure: FIG. 53: Fatty acid oxidation was determined via palmitate oxidation. […] Data are corrected for DNA content. Values are presented as mean±SEM, n=6. Means with different letter differ with p<0.05.
The adipose tissue-skeletal muscle endocrine axis may play a potential role in regulating metabolic energy partitioning. […] While both calcium and dairy accelerate adipose tissue loss, dairy exerts a substantially greater effect and exerts a protective effect on lean tissue during hypocaloric diets. We have shown that dietary calcium modulation of adiposity is mediated, in part, by suppression of calcitriol, while the additional effect of dairy is mediated by additional bioactive components; these include the high concentration of leucine, a key factor in the regulation of muscle protein turnover. […] However, the effect of leucine and calcium, in regulating this process is unclear. Accordingly, present study was designed to investigate the effect of leucine, calcitriol and calcium on energy metabolism in murine adipocytes and muscle cells. Leucine induced a 41% increase in fatty acid oxidation in C2C12 muscle cells (p<0.001) and decreased fatty acid synthase gene expression by 66% (p<0.001) in 3T3-L1 adipocytes. Calcitriol decreased muscle cell fatty acid oxidation by 17% (p<0.05) and increased adipocyte FAS gene expression by 3-fold (p<0.05).

fatty acid synthase = experiment: Fatty acid synthase gene expression in adipocytes; format: cell-based, murine
Description: The adipose tissue-skeletal muscle endocrine axis may play a potential role in regulating metabolic energy partitioning. […] However, the effect of leucine and calcium, in regulating this process is unclear. Accordingly, present study was designed to investigate the effect of leucine, calcitriol and calcium on energy metabolism in murine adipocytes and muscle cells.

C2C12 myotubes [5] = experiment: IL-15 release by myotubes (ELISA); format: cell-based, murine; settings: for effect on IL-15 release: C2C12 myotubes, 48 hours
Procedure: IL-15 release in the medium was determined using ELISA. Data are corrected for DNA content. Values are presented as mean±SEM, n=6. Means with different letter differ with p<0.05.

Molecule: O=[N+]([O-])c1ccc(O)c([N+](=O)[O-])c1 [DNP]
- effect on calcitriol stimulated TNFα expression (TNFα): blocked
- effect on calcitriol stimulated IL-6 expression (IL-6): blocked

Molecule: Nc1nc2c(ncn2[C@@H]2O[C@H](COP(=O)(O)OP(=O)(O)O)[C@@H](O)[C@H]2O)c(=O)[nH]1 [GDP]
- augmentation of the H2O2 effect on mitochondrial potential (3T3-L1 adipocytes [1]): 10%
- effect on glucose induced DNA synthesis (3T3-L1 adipocytes [2]): augmented
- effect on glucose stimulated cyclin A expression (cyclin A): augmented
- increase in ROS production compared with H2O2 treatment alone (3T3-L1 adipocytes [3]; GDP 100 μmol/L plus H2O2, 48 hours, p<0.01): 24%
- effect on high glucose induced ROS production (3T3-L1 adipocytes [3]; compound plus glucose 30 mmol/L, 48 hours): further stimulated
- effect on NADPH oxidase expression (NADPH oxidase): suppressed

Molecule: O=C[C@H](O)[C@@H](O)[C@H](O)[C@H](O)CO [glucose]
- effect on ROS production (3T3-L1 adipocytes [3]; glucose 30 mmol/L, 48 hours, p<0.05): increased ROS production significantly
- effect on NADPH oxidase expression (NADPH oxidase): increased

Molecule: CC(C)C[C@H](N)C(=O)O [leucine]
- increase in fatty acid oxidation (C2C12 myotubes [4]; C2C12 muscle cells, leucine 2.5 mM, 48 hours, p<0.001): 41%
- effect on conditioned medium decreased fatty acid oxidation in muscle cells (C2C12 myotubes [4]; adipocytes conditioned with leucine and/or nifedipine): attenuated
- effect on calcitriol decreased muscle cell fatty acid oxidation (C2C12 myotubes [4]; compound added to calcitriol): partially reversed
- decrease in fatty acid synthase gene expression (fatty acid synthase; 3T3-L1 adipocytes, p<0.001): 66%
- effect on calcitriol increased adipocyte FAS gene expression (fatty acid synthase; compound added to calcitriol): partially reversed
- effect on IL-15 release (C2C12 myotubes [5]): without effect

B1: adiponectin: adipokine added to C2C12 myotubes at 70 ng/ml (protein, UniProt Q15848 19-244, looked up)
Adiponectin: ETTTQGPGVLLPLPKGACTGWMAGIPGHPGHNGAPGRDGRDGTPGEKGEKGDPGLIGPKGDIGETGVPGAEGPRGFPGIQGRKGEPGEGAYVYRSAFSVGLETYVTIPNMPIRFTKIFYNQQNHYDGSTGKFHCNIPGLYYFAYHITVYMKDVKVSLFKKDKAMLFTYDQYQENNVDQASGSVLLHLEVGDQVWLQVYGEGERNGLYADNDNDSTFTGFLLYHDTN
- effect on fatty acid oxidation (C2C12 myotubes [4]; C2C12 myotubes, adiponectin 70 ng/ml, 48 hours): markedly increased
- effect on fatty acid oxidation suppressed by calcitriol (C2C12 myotubes [4]; in the presence of leucine): restored
- effect on IL-15 release (C2C12 myotubes [5]): significantly increased
- effect on calcitriol inhibition of IL-15 release (C2C12 myotubes [5]; adiponectin 70 ng/ml plus calcitriol 10 nM): partially reversed

Source: patent US20110038948A1, “Methods of Reducing the Production of Reactive Oxygen Species and Methods of Screening or Identifying Compounds and Compositions that Reduce the Production of Reactive Oxygen Species” (UNIVERSITY OF TENNESSEE RESEARCH FOUNDATION, priority 2005, published 2011)
